Experimental data as given in publication PMC10257182, “Discovery of senolytics using machine learning” (Nature Communications, 2023).
pIC50: −log10 of the molar value. Several values for one entry are separate records, joined by “and”; a condition that tells them apart may be missing. Equal entries are not always repeated.

Assays:
Format in all cases: cell-based, human
[1] = system: non-senescent control IMR90 ER:RAS cells; experiment: Nuclei count (Hoechst, high content imaging) senolytic assay, OIS model, non-senescent control cells; conditions: for Mean % Cell Survival: Control, mean n=3 (Fig 3C); for % Cell Survival: control
Procedure, shortened: (§1)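 Senolytic read-out as total nuclei per well by automated Hoechst imaging after 72 h compound exposure (10 μM to 10 nM, 10-point […], triplicate), relative to untreated controls. Paired cultures: IMR90 ER:RAS kept non-senescent or made senescent with 100 nM final 4-OHT; ouabain served as positive control.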

[2] = system: senescent IMR90 ER:RAS cells (4-OHT-induced); experiment: Nuclei count (Hoechst, high content imaging) senolytic assay, oncogene-induced senescence (OIS) model, senescent cells; conditions: for Mean % Cell Survival: Senescent, mean n=3 (Fig 3C); for % Cell Survival: senescence
Procedure, shortened: as §1

[3] = system: senescent A549 cells (etoposide-induced); experiment: Nuclei count senolytic assay, therapy-induced senescence (TIS) model, senescent cells; conditions: for Mean % Cell Survival: Senescent cells; for % Cell Survival: senescence cells, single replicate
Procedure, shortened: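 Nuclei counted by Hoechst 33342 imaging after fixation, following 72 h treatment with compound at 10 nM–10 μM (10-point […], triplicates). Targets were control A549 cells and A549 rendered senescent by 48 h 100 μM etoposide plus 3 days recovery.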

[4] = log (dose) [M] -5, individual replicates (Fig 3D)
[5] = log (dose) [M] -5.33, individual replicates (Fig 3D)
[6] = log (dose) [M] -5.66, individual replicates (Fig 3D)
[7] = log (dose) [M] -6, individual replicates (Fig 3D)
[8] = log (dose) [M] -6.33, individual replicates (Fig 3D)
[9] = log (dose) [M] -6.66, individual replicates (Fig 3D)
[10] = log (dose) [M] -7, individual replicates (Fig 3D)
[11] = log (dose) [M] -7.33, individual replicates (Fig 3D)
[12] = log (dose) [M] -7.66, individual replicates (Fig 3D)
[13] = log (dose) [M] -8, individual replicates (Fig 3D)

CO[C@H]1C[C@H](O[C@H]2CC[C@]3(C)[C@H]4CC[C@]5(C)[C@@H](C6=CC(=O)OC6)CC[C@]5(O)[C@@H]4CC[C@]3(O)C2)O[C@H](C)[C@H]1O[C@@H]1O[C@H](CO)[C@@H](O)[C@H](O)[C@H]1O [Periplocin, periplocin]
Mean % Cell Survival ([1]; log (dose) [M] -5, 72 h): 18.4295%
Mean % Cell Survival ([1]; log (dose) [M] -5.33, 72 h): 19.4604%
Mean % Cell Survival ([1]; log (dose) [M] -5.66, 72 h): 23.5452%
Mean % Cell Survival ([1]; log (dose) [M] -6, 72 h): 29.0681%
Mean % Cell Survival ([1]; log (dose) [M] -6.33, 72 h): 43.2104%
Mean % Cell Survival ([1]; log (dose) [M] -6.66, 72 h): 52.7161%
Mean % Cell Survival ([1]; log (dose) [M] -7, 72 h): 63.4586%
Mean % Cell Survival ([1]; log (dose) [M] -7.33, 72 h): 71.1117%
Mean % Cell Survival ([1]; log (dose) [M] -7.66, 72 h): 89.3621%
Mean % Cell Survival ([1]; log (dose) [M] -8, 72 h): 91.9585%
pIC50 ([1]; OIS model, non-senescent IMR90 ER:RAS, nuclei count, 72 h): 6.52
% Cell Survival [1, 4]: 15.9071% and 11.1013% and 28.2801%
% Cell Survival [1, 5]: 20.9802% and 15.9471% and 21.4539%
% Cell Survival [1, 6]: 25.1075% and 20.6167% and 24.9113%
% Cell Survival [1, 7]: 32.8461% and 26.2555% and 28.1028%
% Cell Survival [1, 8]: 39.8108% and 40.3524% and 49.4681%
% Cell Survival [1, 9]: 51.9347% and 55.859% and 50.3546%
% Cell Survival [1, 10]: 57.6956% and 62.3789% and 70.3014%
% Cell Survival [1, 11]: 64.4884% and 71.5419% and 77.305%
% Cell Survival [1, 12]: 94.8409% and 82.7313% and 90.5142%
% Cell Survival [1, 13]: 93.6371% and 90.7489% and 91.4894%
dose showing the clearest / optimal senolytic effect ([2]; OIS IMR90 ER:RAS, Hoechst nuclei count, marginal effect on normal cells): 46.4 nM
pIC50 ([2]; OIS model, 4-OHT-induced IMR90 ER:RAS, nuclei count, 72 h): 7.62
Mean % Cell Survival ([2]; log (dose) [M] -5, 72 h): 3.183%
Mean % Cell Survival ([2]; log (dose) [M] -5.33, 72 h): 6.126%
Mean % Cell Survival ([2]; log (dose) [M] -5.66, 72 h): 4.43%
Mean % Cell Survival ([2]; log (dose) [M] -6, 72 h): 4.805%
Mean % Cell Survival ([2]; log (dose) [M] -6.33, 72 h): 5.142%
Mean % Cell Survival ([2]; log (dose) [M] -6.66, 72 h): 5.675%
Mean % Cell Survival ([2]; log (dose) [M] -7, 72 h): 6.834%
Mean % Cell Survival ([2]; log (dose) [M] -7.33, 72 h): 16.5597%
Mean % Cell Survival ([2]; log (dose) [M] -7.66, 72 h): 54.5059%
Mean % Cell Survival ([2]; log (dose) [M] -8, 72 h): 96.9401%
senolytic activity (in words) ([2]; experimental screen, OIS IMR90 ER:RAS): clear senolytic action
senolytic index (SI) ([2]; ratio between the IC50 of control cells and the IC50 of senescent cells, OIS IMR90 ER:RAS): 12.3
% Cell Survival [2, 4]: 3.074% and 3.321% and 3.154%
% Cell Survival [2, 5]: 5.0494% and 9.706% and 3.6215%
% Cell Survival [2, 6]: 4.72% and 4.5977% and 3.972%
% Cell Survival [2, 7]: 4.061% and 4.981% and 5.374%
% Cell Survival [2, 8]: 6.147% and 3.321% and 5.958%
% Cell Survival [2, 9]: 4.501% and 7.152% and 5.374%
% Cell Survival [2, 10]: 5.818% and 7.791% and 6.893%
% Cell Survival [2, 11]: 17.8924% and 15.198% and 16.5888%
% Cell Survival [2, 12]: 42.1515% and 64.2401% and 57.1262%
% Cell Survival [2, 13]: 93.8529% and 97.318% and 99.6495%
concentration at which a senolytic effect was reached ([3]; TIS A549, Hoechst labelling, marginal effect on normal cells): 46.4 nM
pIC50 ([3]; TIS model, etoposide-induced senescent A549, nuclei count, 72 h): 7.14
senolytic action (in words) ([3]; experimental screen, TIS senescent A549): strong senolytic action
Mean % Cell Survival ([3]; log (dose) [M] -5): 2.656%
% Cell Survival ([3]; log (dose) [M] -5): 2.664% and 2.743% and 2.561%
Mean % Cell Survival ([3]; log (dose) [M] -5.33): 3.4604%
% Cell Survival ([3]; log (dose) [M] -5.33): 2.7192% and 5.421% and 2.241%
Mean % Cell Survival ([3]; log (dose) [M] -5.66): 3.427%
% Cell Survival ([3]; log (dose) [M] -5.66): 2.83% and 4.507% and 2.945%
Mean % Cell Survival ([3]; log (dose) [M] -6): 6.477%
% Cell Survival ([3]; log (dose) [M] -6): 6.937% and 6.9889% and 5.506%
Mean % Cell Survival ([3]; log (dose) [M] -6.33): 11.1387%
% Cell Survival ([3]; log (dose) [M] -6.33): 13.0411% and 10.516% and 9.859%
Mean % Cell Survival ([3]; log (dose) [M] -6.66): 17.1368%
% Cell Survival ([3]; log (dose) [M] -6.66): 19.7003% and 13.9125% and 17.7977%
Mean % Cell Survival ([3]; log (dose) [M] -7): 34.3857%
% Cell Survival ([3]; log (dose) [M] -7): 35.4051% and 33.1809% and 34.5711%
Mean % Cell Survival ([3]; log (dose) [M] -7.33): 62.5957%
% Cell Survival ([3]; log (dose) [M] -7.33): 65.3163% and 61.2671% and 61.2036%
Mean % Cell Survival ([3]; log (dose) [M] -7.66): 94.3691%
% Cell Survival ([3]; log (dose) [M] -7.66): 88.7902% and 97.518% and 96.799%
Mean % Cell Survival ([3]; log (dose) [M] -8): 98.9494%
% Cell Survival ([3]; log (dose) [M] -8): 101.831% and 100.523% and 94.4942%
